Laboratory results from paper PMC12028158, “Synthesis and In Vitro Evaluation of the Anticancer Effect of Novel Phosphonium Vindoline Derivatives” (International Journal of Molecular Sciences, 2025).

Key:
Format in all cases: cell-based
RPMI-8226 = assay: NCI60 one-dose screen; settings: Homo sapiens, RPMI-8226, read-out: Growth percent
HOP-92 [1] = assay: NCI60 one-dose screen; settings: Homo sapiens, HOP-92, read-out: Growth percent
NCI-H226 = assay: NCI60 one-dose screen; settings: Homo sapiens, NCI-H226, read-out: Growth percent
NCI-H23 = assay: NCI60 one-dose screen; settings: Homo sapiens, NCI-H23, read-out: Growth percent
NCI-H522 [2] = assay: NCI60 one-dose screen; settings: Homo sapiens, NCI-H522, read-out: Growth percent
HCT-15 = assay: NCI60 one-dose screen; settings: Homo sapiens, HCT-15, read-out: Growth percent
HT29 = assay: NCI60 one-dose screen; settings: Homo sapiens, HT-29, read-out: Growth percent
SW-620 = assay: NCI60 one-dose screen; settings: Homo sapiens, SW-620, read-out: Growth percent
LOX IMVI = assay: NCI60 one-dose screen; settings: Homo sapiens, read-out: Growth percent
MALME-3M = assay: NCI60 one-dose screen; settings: Homo sapiens, Malme-3M, read-out: Growth percent
SK-MEL-2 = assay: NCI60 one-dose screen; settings: Homo sapiens, SK-MEL-2, read-out: Growth percent
OVCAR-4 [3] = assay: NCI60 one-dose screen; settings: Homo sapiens, OVCAR-4, read-out: Growth percent
OVCAR-5 [4] = assay: NCI60 one-dose screen; settings: Homo sapiens, OVCAR-5, read-out: Growth percent
SK-OV-3 [5] = assay: NCI60 one-dose screen; settings: Homo sapiens, SK-OV-3, read-out: Growth percent
786-0 = assay: NCI60 one-dose screen; settings: Homo sapiens, 786-0, read-out: Growth percent
TK-10 = assay: NCI60 one-dose screen; settings: Homo sapiens, TK-10, read-out: Growth percent
DU-145 = assay: NCI60 one-dose screen; settings: Homo sapiens, DU-145, read-out: Growth percent
MDA-MB-231/ATCC = assay: NCI60 one-dose screen; settings: Homo sapiens, MDA-MB-231, read-out: Growth percent
T-47D = assay: NCI60 one-dose screen; settings: Homo sapiens, T47D, read-out: Growth percent
MDA-MB-468 = assay: NCI60 one-dose screen; settings: Homo sapiens, MDA-MB-468, read-out: Growth percent
[6] = system: 60 human tumor cell lines (NCI60); assay: NCI60 one-dose screen, overall mean; settings: Homo sapiens, 60 cell, read-out: Mean growth percent
A549/ATCC = assay: NCI60 five-dose screen; settings: Homo sapiens, A549
HOP-92 [7] = assay: NCI60 five-dose screen; settings: Homo sapiens, HOP-92
NCI-H460 = assay: NCI60 five-dose screen; settings: Homo sapiens, NCI-H460
NCI-H522 [8] = assay: NCI60 five-dose screen; settings: Homo sapiens, NCI-H522
HCC-2998 = assay: NCI60 five-dose screen; settings: Homo sapiens, HCC 2998
KM12 = assay: NCI60 five-dose screen; settings: Homo sapiens, KM12
U251 = assay: NCI60 five-dose screen; settings: Homo sapiens, U-251
M14 = assay: NCI60 five-dose screen; settings: Homo sapiens, M14
MDA-MB-435 = assay: NCI60 five-dose screen; settings: Homo sapiens, MDA-MB-435
SK-MEL-28 = assay: NCI60 five-dose screen; settings: Homo sapiens, SK-MEL-28
UACC-257 = assay: NCI60 five-dose screen; settings: Homo sapiens, UACC-257
OVCAR-4 [9] = assay: NCI60 five-dose screen; settings: Homo sapiens, OVCAR-4
OVCAR-5 [10] = assay: NCI60 five-dose screen; settings: Homo sapiens, OVCAR-5
SK-OV-3 [11] = assay: NCI60 five-dose screen; settings: Homo sapiens, SK-OV-3
A498 = assay: NCI60 five-dose screen; settings: Homo sapiens, A498
ACHN = assay: NCI60 five-dose screen; settings: Homo sapiens
CAKI-1 = assay: NCI60 five-dose screen; settings: Homo sapiens, CAKI-1
RXF 393 = assay: NCI60 five-dose screen; settings: Homo sapiens, RXF 393
[12] = system: Non-small Cell Lung Cancer panel; assay: NCI60 five-dose screen, panel mean; settings: Homo sapiens, read-out: GI50 Mean
Melanoma panel = assay: NCI60 five-dose screen, panel mean; settings: Homo sapiens, read-out: GI50 Mean
Renal Cancer panel = assay: NCI60 five-dose screen, panel mean; settings: Homo sapiens, read-out: GI50 Mean
COLO 205 = assay: NCI60 one-dose screen; settings: Homo sapiens, COLO 205, read-out: Growth percent

## CCC12C=CCN3CC[C@@]4(c5ccc(OC)cc5N(C)[C@H]4[C@@](O)(C(=O)OC)[C@@H]1OC(C)=O)[C@@H]32 (stereo partly shown) [compound 2, vindoline]
RPMI-8226
  activity at 10 µM: 101%
HOP-92 [1]
  activity at 10 µM: 84.2%
NCI-H226
  activity at 10 µM: 104%
NCI-H23
  activity at 10 µM: 103%
NCI-H522 [2]
  activity at 10 µM: 88.5%
HCT-15
  activity at 10 µM: 99%
HT29
  activity at 10 µM: 98.5%
SW-620
  activity at 10 µM: 104%
LOX IMVI
  activity at 10 µM: 99.4%
MALME-3M
  activity at 10 µM: 98%
SK-MEL-2
  activity at 10 µM: 107%
OVCAR-4 [3]
  activity at 10 µM: 98.8%
OVCAR-5 [4]
  activity at 10 µM: 91.2%
SK-OV-3 [5]
  activity at 10 µM: 108%
786-0
  activity at 10 µM: 104%
TK-10
  activity at 10 µM: 92.1%
DU-145
  activity at 10 µM: 107%
MDA-MB-231/ATCC
  activity at 10 µM: 97.7%
T-47D
  activity at 10 µM: 95.7%
MDA-MB-468
  activity at 10 µM: 102%
[6]
  activity at 10 µM: 100%

## CC[C@]12C=CCN3CC[C@@]4(c5ccc(OC)cc5N(C)[C@H]4[C@@](O)(C(=O)OC)[C@@H]1OC(=O)CCCC[P+](c1ccccc1)(c1ccccc1)c1ccccc1)[C@@H]32 [compound 4, reference compound]
A549/ATCC
  GI50: 1020 nM
HOP-92 [7]
  GI50: 268 nM
NCI-H460
  GI50: 2110 nM
NCI-H522 [8]
  GI50: 229 nM
HCC-2998
  GI50: 367 nM
KM12
  GI50: 442 nM
U251
  GI50: 312 nM
M14
  GI50: 1790 nM
MDA-MB-435
  GI50: 357 nM
SK-MEL-28
  GI50: 532 nM
UACC-257
  GI50: 215 nM
OVCAR-4 [9]
  GI50: 326 nM
OVCAR-5 [10]
  GI50: 1820 nM
SK-OV-3 [11]
  GI50: 725 nM
A498
  GI50: 2840 nM
ACHN
  GI50: 14600 nM
CAKI-1
  GI50: 2820 nM
RXF 393
  GI50: 308 nM
[12]
  GI50: 1440 nM
Melanoma panel
  GI50: 750 nM
Renal Cancer panel
  GI50: 4870 nM
RPMI-8226
  activity at 10 µM: 15.4%
HOP-92 [1]
  activity at 10 µM: -30%
NCI-H226
  activity at 10 µM: 15.1%
NCI-H23
  activity at 10 µM: 6.4%
NCI-H522 [2]
  activity at 10 µM: -5.5%
COLO 205
  activity at 10 µM: -93.7%
HCT-15
  activity at 10 µM: 99.3%
HT29
  activity at 10 µM: 2.65%
SW-620
  activity at 10 µM: 29.4%
LOX IMVI
  activity at 10 µM: 18.5%
MALME-3M
  activity at 10 µM: -35.8%
SK-MEL-2
  activity at 10 µM: -41.6%
OVCAR-4 [3]
  activity at 10 µM: 5.22%
OVCAR-5 [4]
  activity at 10 µM: 23.8%
SK-OV-3 [5]
  activity at 10 µM: -2.96%
786-0
  activity at 10 µM: 57.2%
TK-10
  activity at 10 µM: 48.6%
DU-145
  activity at 10 µM: 14.7%
MDA-MB-231/ATCC
  activity at 10 µM: -2.41%
T-47D
  activity at 10 µM: 4.99%
MDA-MB-468
  activity at 10 µM: -63.9%
[6]
  activity at 10 µM: 11.9%
